Test results as given in US9345710B2, “Inhibitors of phosphatidic acid phosphohydrolase (PAP) enzymes for the treatment of cancers that depend on members of the ErbB/HER tyrosine kinase receptor family” (PONTIFICA UNIVERSIDAD CATOLICA DE CHILE, priority 2011, dated 2016).
pEC50: −log10 of the molar value. “And” between values parts separate entries of the source, which are not always exact repeats. Equal entries are not always repeated. One block for each compound: values may come before it.

Experiments:
EGFR = assay: Indirect immunofluorescence of EGFR distribution in HeLa cells; set-up: EGFR endocytosis (immunofluorescent pattern): dose or concentration left out as unconfirmed; details: for EGFR endocytosis (immunofluorescent pattern): […] μM propranolol, […] μM desipramine; for EGFR staining pattern by indirect immunofluorescence: 30 min, 100 μM D- or L-propranolol, 20 μM desipramine
Protocol: HeLa cells grown on glass coverslips were washed three times with cold phosphate buffer saline (PBS) and incubated 2 h in serum free DMEM-HEPES media at 37° C., in order to accumulate EGFR on the cell surface. Then the cells were washed with PBS and fixed for 30 min at room temperature with 4% paraformaldehyde in PBS supplemented with 0.1 mM CaCl2 and 1 mM MgCl 2 (PBS-CM). After washing three times with PBS plus 0.2% gelatin (300 Bloom, Sigma Aldrich, PBS-CM-G), 5 minutes each time, cells were permeabilized with 0.2% Triton X-100 for 10 minutes at room temperature and incubated for 12 h at 4° C. with anti-EGFR monoclonal antibody (mAb) HB8506. After at least 6 washes in PBS-CM-G cells were incubated with secondary antibody anti-mouse IgG coupled to Alexa488 (dilution 1/1000) for 30 min at 37° C.

[1] = cited from earlier work
EGFR at the cell surface [2] = details: highest dose 300 μM, 30 min; cited from earlier work
B16F10 cells = assay: Proliferation/viability, melanoma cells B16F10; assay type: cell-based, mice; details: 10 or 30 μM D-Prop, 1 μM Des, alone or combined, 4 days
Protocol: (§1) Viable cells counted in an automatic cell counter after incubation with vital tripan blue dye are represented as % of live cells respect to untreated controls.
(§2) Cells were seeded at a density of 10.000 cells per well in 24-well plates in triplicate and cultured in DMEM supplemented with 10% FBS and antibiotics (penicillin 100 U/ml and streptomycin 100 mg/ml). The medium with the drugs was changed each 24 hours. The respective controls received only culture medium. Viable cells were counted after 4 days of treatment in an automatic cell counter (Countess, Invitrogen) after incubation with vital tripan blue dye and are represented as % of live cells respect to untreated controls.

GBM1 cells = assay: Proliferation/viability of primary glioblastoma cells GBM1; assay type: cell-based, human; details: 10 μM D-Prop, 1 μM Des, alone or combined, 4 days
Protocol: as §2

U87-EGFRvIII cells = assay: Proliferation/viability of cultured tumor cells, U87-EGFRvIII; assay type: cell-based, human; details: 10 μM D-Prop, 1 μM Des, alone or combined, 4 days
Protocol: (§3) HeLa cells used for the radioligand binding assays and immunofluorescence to study EGFR endocytosis have been characterized previously in our laboratory (64, 122, 152). The cells were grown to approximately 80% confluence and maintained without serum for 4 h before testing. U87 human […] cells from the ATCC were grown and transfected with pcDNA3.1-EGFRvIII-myc using the lipofectamine method following the manufacturer's instructions (Invitrogen). 100,000 U87 cells were seeded in 15 mm plated and after 48 hours of seeding cells were transfected with 1 μg of plasmid pcDNA3-EGFRvIII-myc. After 48 hours post-transfection the selection medium (DMEM, 10% Fetal Bovine Serum (FBS) supplemented with antibiotics (100 IU/ml penicillin, […] streptomycin) and 0.8 mg/ml Geneticin was added (G418, Sigma). After 2 weeks in selection media, permanently transfected cells were obtained (U87-EGFRvIII).
as §2, with “The respective controls received only culture medium.” left out

UCI 101 cells = assay: Proliferation/viability, ovarian cancer cells UCI 101; assay type: cell-based, human; details: 10 or 30 μM D-Prop, 1 μM Des, alone or combined, 4 days
Protocol: as §1, §2

MDCK cells = assay: Proliferation/viability, non-tumoral MDCK cells (selectivity control); assay type: cell-based, canine; details: 10 or 30 μM D-Prop, 1 μM Des, alone or combined, 4 days
Protocol: as §1, §2

U87 cells = assay: Proliferation/viability of cultured tumor cells, U87; assay type: cell-based, human; details: 10 μM D-Prop, 1 μM Des, alone or combined, 4 days
Protocol: as §3
as §2, with “The respective controls received only culture medium.” left out

EGFR at the cell surface [3] = assay: 125I-EGF radioligand binding assay on HeLa cells (EGFR at the cell surface); assay type: cell-based, human; details: for decrease of EGFR at the cell surface (125I-EGF binding): 30 min, HeLa
Protocol: as §3
The radioligand ^125I-human EGF was prepared by the chloramine T method as described (122, 152, 160) yielding specific activities of 50000-70000 cpm/ng. Binding assays were performed in Hanks solution with 20 mM HEPES and 0.2% bovine serum albumin (BSA) for 1 h at 4° C., as described (122). HeLa cells deprived of serum for 4 h were treated for 30 min with the indicated doses of various drugs and then incubated with 20 ng/ml ^125I-EGF at 4° C. in binding medium (MEM-Hank's, 25 mM HEPES, 0.2% BSA RIA grade), stirring for 1 h. The cells were lysed with 1 N NaOH for 2 h at room temperature and the counts per minute of each sample in triplicate was determined in a gamma counter, including a nonspecific binding point obtained by incubation with an excess (500 fold) of cold ligand, whose value was subtracted from each sample. The radioligand binding in saturating condition provides an estimate of the amount of EGFR on the cell surface.

H1975 cells = assay: Proliferation/viability, NSCLC cells H1975 (EGFR L858R/T790M); assay type: cell-based, human; details: 10 or 30 μM D-Prop, 1 μM Des, alone or combined, 4 days
Protocol: as §1, §2

Compound: CC(C)NCC(O)COc1cccc2ccccc12 (racemic) [propranolol]
EGFR endocytosis (immunofluorescent pattern) (EGFR): induce endocytosis of the EGFR
half-time of concentration in circulation ([1]; human, in vivo): 4 to 6 h
decrease of the levels of EGFR at the cell surface (125I-EGF binding) (EGFR at the cell surface [2]): 80%

pEC50 (EGFR at the cell surface [3]; HeLa cells, serum deprived 4 h, drug 30 min, read-out: EC50 for decrease in 125I-EGF binding (EGFR at the cell surface)): 4.60 to 4.70 and ~4.70
Compound: CNCCCN1c2ccccc2CCc2ccccc21 [desipramine]
viable cells (% of live cells respect to untreated controls), B16F10 (B16F10 cells): sensitive
EGFR staining pattern by indirect immunofluorescence (EGFR): the pattern changed to an intracellular location, mainly at the perinuclear region
EGFR endocytosis (immunofluorescent pattern) (EGFR): induce endocytosis of the EGFR
reported effective blood concentration ([1]; human, in vivo): 1 µM
proliferation of GBM1 cells (GBM1 cells): decrease their proliferation
proliferation of U87-EGFRvIII cells (U87-EGFRvIII cells): decrease their proliferation
viable cells (% of live cells respect to untreated controls), UCI 101 (UCI 101 cells): sensitive
viable cells (% of live cells respect to untreated controls), MDCK (MDCK cells): not affected
proliferation of U87 cells (U87 cells): not sensitive
viable cells (% of live cells respect to untreated controls), H1975 (H1975 cells): sensitive

Compound: CC(C)NC[C@H](O)COc1cccc2ccccc12 [L-propranolol]
EGFR staining pattern by indirect immunofluorescence (EGFR): the pattern changed to an intracellular location, mainly at the perinuclear region
decrease of EGFR at the cell surface (125I-EGF binding) (EGFR at the cell surface [3]; 250 μM): ~80%
decrease of EGFR at the cell surface (125I-EGF binding) (EGFR at the cell surface [3]; […] μM): about 50%

Compound: CC(C)NC[C@@H](O)COc1cccc2ccccc12 [D-propranolol]
viable cells (% of live cells respect to untreated controls), B16F10 (B16F10 cells): sensitive
EGFR staining pattern by indirect immunofluorescence (EGFR): the pattern changed to an intracellular location, mainly at the perinuclear region
concentration in the blood of patients ([1]; patients treated for arrhythmia, 12 h after the last dose (ref. 14)): ~10 µM
proliferation of GBM1 cells (GBM1 cells): decrease their proliferation
proliferation of U87-EGFRvIII cells (U87-EGFRvIII cells): decrease their proliferation
viable cells (% of live cells respect to untreated controls), UCI 101 (UCI 101 cells): sensitive
viable cells (% of live cells respect to untreated controls), MDCK (MDCK cells): not affected
proliferation of U87 cells (U87 cells): not sensitive
decrease of EGFR at the cell surface (125I-EGF binding) (EGFR at the cell surface [3]; 250 μM): ~80%
decrease of EGFR at the cell surface (125I-EGF binding) (EGFR at the cell surface [3]; […] μM): about 50%
viable cells (% of live cells respect to untreated controls), H1975 (H1975 cells): sensitive
